Laboratory results as given in patent US9447026B2, “Bicyclic analgesic compounds” (KALYRA PHARMACEUTICALS, INC., priority 2013, dated 2016).

Key:
[1] = tested on: pooled human liver microsomes; experiment: Glutathione Conjugation Assay; assay type: in vitro ADME; details: 100 μM test compound, 1 mM glutathione, NADPH, 60 mins at 37° C.
Method: An incubation mixture consisting of 5 μL of 10 mM test compound in DMSO (5 μL of DMSO for negative control; 5 μL of 10 mM acetaminophen in DMSO for positive control), 5 μL of 0.1 M glutathione 25 mM EDTA in water, 50 μL of 100 mM MgCl2 in water, 50 μL of 20 mg/mL pooled human liver microsomes (P-450 content: ˜0.5 nmol/mg protein), and 340 μL of 100 mM potassium phosphate buffer (pH 7.4) was preincubated at 37° C. for 10 mins. The reaction was initiated by the addition of 50 μL of 100 mM NADPH solution. The final incubation volume was 0.5 mL. The incubation mixture contains 100 μM test compound or acetaminophen (positive control), 1 mM glutathione, and 1 μM P450. After 60 mins incubation at 37° C., 1 mL of chilled acetonitrile was added to stop the reaction. After the addition of acetonitrile, the sample was vortexed and centrifuged. The supernatant was collected, concentrated in TurboVap under N2 (10 psi) at 30° C. for 35 mins, and transferred to a 96-well plate. The plate was capped and centrifuged. The supernatant was injected for LC-MS/MS analysis.
As a result, one skilled in the art would not expect compounds of Formula (I) to form the reactive metabolite NAPQI. A 129 neutral loss scan can be used to search or detect the formation of glutathione conjugates.

male ICR mice = experiment: Formalin Paw Test; assay type: in vivo
Method: One test compound or the vehicle was administered to each mouse in each test group (8 mice per group). Non-fasted male ICR mice weighing 23±3 g were used. Compounds of Formula (I) were administered at a concentration of 3 mg/kg, 10 mg/kg, 15 mg/kg, 30 mg/kg, 60 mg/kg, 100 mg/kg, 200 mg/kg or 300 mg/kg; morphine was administered at a concentration of 5 mg/kg; and acetaminophen was administered at a concentration of 200 mg/kg. The control group received the vehicle (5% DMSO/40% PEG400/20% HPbCD/Saline). After 30 or 60 minutes, a 2% formalin solution (0.02 mL) was injected into one hind paw (sub-plantar) of each mouse. Responses were measured every 5 minutes after the formalin injection for 35 minutes.

[2] = 200 mg/kg, administered 30 minutes before formalin injection, acetaminophen 200 mg/kg, FIG. 5

formation of reactive metabolite NAPQI [1] | Compound | glutathione conjugate peak (129 neutral loss scan, LC-MS/MS) [1] | amount less than the amount of acetaminophen needed to achieve the approximate same pain response (male ICR mice; 60 mg/kg vs 200 mg/kg acetaminophen) | efficacy compared to acetaminophen, after 25 minutes (male ICR mice; [2]) | pain response compared to acetaminophen, initial 25 minutes (male ICR mice; [2]) | dosage providing a pain response approximately equal to 200 mg/kg of acetaminophen (male ICR mice; dosages ranging from 3 mg/kg to 100 mg/kg, FIG. 9) | pain response compared to acetaminophen, entire testing period (male ICR mice; given 60 minutes prior to formalin injection, FIG. 10) | compound dose as percent of acetaminophen dose giving a lower pain response (male ICR mice; 60 mg/kg vs 200 mg/kg acetaminophen, tonic phase) | duration of decrease in pain response (phases) (male ICR mice; 200 mg/kg, administered 30 minutes before formalin injection, FIG. 4) | pain response compared to acetaminophen and morphine (male ICR mice; 200 mg/kg, administered 30 minutes before formalin injection, morphine 5 mg/kg, acetaminophen 200 mg/kg, FIG. 4) | efficacy compared to acetaminophen, acute phase (male ICR mice; all dosages ranging from 15 mg/kg to 200 mg/kg, FIG. 8) | pain response compared to acetaminophen (male ICR mice; dosage 200 mg/kg, FIG. 8) | dose needed to reduce the pain response to a level less than 200 mg/kg of acetaminophen (male ICR mice; tonic phase, FIG. 8)
NAPQI was not formed | CC(=O)NC12CC(C1)C2 [compound 4, N-(bicyclo[1.1.1]pentan-1-yl)acetamide] | no glutathione conjugate peak was observed | about 33% | increased efficacy compared to acetaminophen | reduces the pain response in a manner similar to acetaminophen for the initial 25 minutes | 60 mg/kg | reduces the pain response in a manner similar to acetaminophen throughout the entire testing period |  |  |  |  |  | 
NAPQI was not formed | CC(=O)NC12CC(NC(C)=O)(C1)C2 [compound 10, N,N′-(bicyclo[1.1.1]pentane-1,3-diyl)diacetamide] | no glutathione conjugate peak was observed |  |  |  |  |  | about 33% | lasted through both the early/acute phase (0-5 minutes) and the late/tonic phase (20-35 minutes) | significantly decreased the pain response compared to both acetaminophen and morphine | equal to or significant increased efficacy compared to acetaminophen | approximately 50% | 60 mg/kg
